Assay results as given in patent US20220023291A1, “COMPOSITIONS AND METHODS FOR REGULATING INFLAMMATION” (University of Virginia Patent Foundation, priority 2018, published 2022).
“Also recorded” adds a separate entry of the source.

Legend:
[1] = tested on: tau hyperphosphorylation; conditions: cited from earlier work
[2] = biological target: sigma-1 receptor (Homo sapiens, UniProt Q99720); conditions: cited from earlier work
[3] = tested on: mice; conditions: mice treated with scopolamine, synthetic Aβ oligomer injection, or dizocilpine; cited from earlier work
[4] = tested on: muscarinic receptor; conditions: cited from earlier work
[5] = biological target: T1, IRE1 endonuclease activity (Mus musculus, UniProt Q9EQY0); assay: XBP1 splicing ratio by qPCR in BMDM; assay type: cell-based
T1 construct: We prepared bone marrow derived macrophages (BMDM) from WT and S1R KO mice; endogenous in cells; host or cells: primary mouse bone marrow derived macrophages (WT and S1R KO, C57BL/6J background)
Experimental: (§1) Tissue culture conditions and Reagents. HEK293 cells, primary lung fibroblasts and BMDM were isolated and maintained as described (41-43). Cells were treated with LPS (Sigma, L4391), 4μ8C (Tocris, 4479), tunicamycin (Tocris, 3516), PD98059 (Medchem Express HY-12028), JSH-23 (Medchem Express, Hy-13982), SP600125 (Medchem Express, HY-12041), cycloheximide (Tocris, 0970), lactacystin (Cayman Chemical, 70980), chloroquine (Fisher, ICN19391925), and STF 083010 (Medchem Express, HY-15845) as described in the text.
cDNA synthesis and quantitative RT-PCR. Total RNA was extracted using an ISOLATE II RNA (Bioline, 52073) and cDNA synthesis was performed with the ISCRIPT™ kit (Bio-Rad, 170-8891). TaqMan Probes were obtained from Life Technologies (GAPDH: Mm99999915_g1; IL-6: Mm00446190_m1; pro-IL-1β: Mm00434228_m1; TNFα: Mm00443258_m1). Primers for IRE1 detection were GCACGUGAAUUGAUAGAGA (SEQ ID NO: 10) and UCUCUAUCAAUUCACGUGC (SEQ ID NO: 11). Primers for the detection of XBP1 were previously published (Lipson et al., 2008). RT-PCR was performed as described previously (Gaultier et al., 2009).
cDNA synthesis and quantitative PCR. Total RNA was extracted using an ISOLATE II RNA kit (Bioline, 52073) and cDNA synthesis was performed with the SENSIFAST™ cDNA synthesis kit (Bioline, BIO-65054). TaqMan Probes were obtained from Thermo Fisher (GAPDH: Mm99999915_g1; IL-6: Mm00446190_m1; pro-IL-1β: Mm00434228_m1; IL10: Mm004396). Primers for the detection of XBP1, IL-8, and actin were previously published (Vandesompele et al., 2002; Kumar & Valdivia, 2008; Girard et al., 2009). qPCR was performed as described previously (Gaultier et al., 2008).

[6] = tested on: FIP sepsis model mice; assay: Fecal induced peritonitis (FIP); assay type: in vivo, mouse; conditions: for Survival: 1.5 g/kg fecal slurry
Experimental: Fecal induced peritonitis (FIP). Fecal material was isolated from the caecum of age- and sex-matched WT animals coming from the UVA vivarium for FIGS. 10A-10D and 10L-10R or from Jackson Laboratory for FIGS. 12D-12O, resuspended in saline and passed through a […] strainer to remove large particles. The slurry was prepared fresh for each experiment. Core body temperature was measured and mice were scored with murine sepsis severity scale by two independent, blinded researchers (Shrum et al., 2014). Blood for serum ELISA was collected from facial vein at 3 hours post FIP induction. Where indicated, fluvoxamine in saline was administered intraperitoneally at a dose of 20 mg/kg, and ceftriaxone in saline was given at a dose of 100 mg/kg subcutaneously.

[7] = tested on: BMDM; assay: IL-6 ELISA on supernatant of LPS-stimulated BMDM; assay type: cell-based, mouse; conditions: 1 μg/mL LPS, 6 hours; for Difference in LPS-induced IL-6 secretion between WT and S1R KO BMDM: 20 μM JSH-23, 20 μM PD98059, 1 μM SP600125, 5 μM 4μ8C; for LPS-induced IL-6 secretion: WT and S1R KO BMDM, 20 μM JSH-23, 20 μM PD98059, 1 μM SP600125
Experimental: as §1
(§2) ELISA. ELISA for IL-6 and TNFα were performed as previously described (Remick et al., 2002). Antibodies used were: anti-mouse IL-6 MP5-20F3 (Biolegend, 504501) 0.5 μg/mL; biotin anti-mouse IL-6 MP5-32C11 (Biolegend, 504601) 1 μg/mL; anti-mouse TNFα (R&D systems, AF-410-NA) 0.5 μg/mL; biotin anti-mouse TNFα (R&D systems, BAF410) 0.25 μg/mL.
Tissue culture conditions and Reagents. HEK293 mTLR4/MD2/CD14 (Invivogen, 293-mtlr4md2cd14), primary lung fibroblasts, and BMDM were isolated and maintained as described (Zhang et al., 2008; Seluanov et al., 2010). Cells and animals were treated with LPS (Sigma, L4391), 4μ8C (Tocris, 4479), APY-29 (Medchem Express HY-17537), PD98059 (Medchem Express HY-12028), JSH-23 (Medchem Express, HY-13982), SP600125 (Medchem Express, HY-12041), STF 083010 (Medchem Express, HY-15845), Fluvoxamine (Medchem Express, HY-B0103A), and Ceftriaxone (Hospira, NDC: 0409-7337-01), as described in the text.
as §2, with “TNF-α” for “TNFα”

[8] = tested on: LPS challenged mice; assay: In vivo LPS (endotoxin) challenge; parameters: species or system mouse
Experimental: Endotoxin challenge. In vivo endotoxin challenge was performed on mice at 8-12 weeks of age. LPS from E. coli 0111:B4 (Sigma-Aldrich, L2630) was injected intraperitoneally as described in the manuscript. STF 083010 (Medchem Express, HY-15845) was resuspended in 33% Kolliphor-EL (Sigma, C5135) and administered intraperitoneally at 30 mg/kg immediately after and again 24 hours after LPS injection.
Peritoneal contents collection. Three hours after LPS injection, peritoneal cavities were washed with 2.5 mL of ice-cold PBS+5 mM EDTA, and then centrifuged to pellet cells. Supernatants were collected for ELISA, and the remaining cells were washed and stored as previously described (Gaultier et al., 2008).
LPS challenge. In vivo LPS challenge was performed on adult mice (8-12 weeks of age). LPS from E. coli 0111:B4 (Sigma-Aldrich, L2630) was injected intraperitoneally, as described in the manuscript. STF083010 (Medchem Express, HY-15845) was resuspended in 33% Kolliphor-EL (Sigma, C5135) and administered intraperitoneally at 30 mg/kg immediately after and again 24 hours after LPS injection. Fluvoxamine was resuspended in saline and administered at 20 mg/kg as indicated in the text. Blood for serum ELISA was collected from facial vein at the peak serum concentration of TNF-α and IL-6 (Copeland et al., 2005a).
Peritoneal exudates collection. Peritoneal cavities content were collected 3 hours after LPS injection in PBS+5 mM EDTA, then centrifuged to pellet cells. Supernatants were collected for ELISA, and cells were washed and stored as previously described (Gaultier et al., 2008).

[9] = tested on: HEK293 cells; assay: Immunoblot for total IRE1 in HEK293 cells overexpressing IRE1 and S1R; assay type: cell-based; conditions: 5 μM lactacystin or 30 μM chloroquine, 6 hours
Source text: Western blot. […] Linear level adjustments were applied to entire images to enhance visualization.
Transfection of proteins for overexpression.

[10] = tested on: heparinized peripheral blood from healthy donors; assay: Human whole blood stimulation ex vivo with LPS, multiplex cytokine analysis; assay type: cell-based; conditions: 10 ng/mL LPS, 20 μM fluvoxamine, 4 hours
Experimental: Human whole blood stimulation. Study participants were healthy adults (ages 18-45). The study was approved by the Institutional Review Board at the University of Virginia, and all participants signed informed consent before enrollment. Blood was collected into heparinized vacuum tube, then stimulated with 10 ng/mL LPS+/−20 μM fluvoxamine for 4 hours, as described (Thurm & Halsey, 2005). Cytokine concentrations were determined by multiplex analysis.

[11] = treatment 90 min post FIP induction, fluvoxamine 20 mg/kg i.p. and/or ceftriaxone 100 mg/kg s.c.
[12] = LPS 2 mg/kg co-administered with STF 30 mg/kg
[13] = LPS 2 mg/kg, STF 30 mg/kg i.p. at 0 hours and 24 hours
[14] = LPS 6 mg/kg, fluvoxamine 20 mg/kg at the same time as LPS

Chain of sigma-1 receptor (Q99720 whole entry): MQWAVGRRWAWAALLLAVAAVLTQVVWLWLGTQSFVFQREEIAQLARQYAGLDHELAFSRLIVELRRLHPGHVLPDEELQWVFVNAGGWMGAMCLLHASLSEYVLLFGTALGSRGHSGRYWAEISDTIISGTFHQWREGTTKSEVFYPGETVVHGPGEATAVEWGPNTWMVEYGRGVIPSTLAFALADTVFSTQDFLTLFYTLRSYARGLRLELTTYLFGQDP
T1 sequence (Q9EQY0 21-977): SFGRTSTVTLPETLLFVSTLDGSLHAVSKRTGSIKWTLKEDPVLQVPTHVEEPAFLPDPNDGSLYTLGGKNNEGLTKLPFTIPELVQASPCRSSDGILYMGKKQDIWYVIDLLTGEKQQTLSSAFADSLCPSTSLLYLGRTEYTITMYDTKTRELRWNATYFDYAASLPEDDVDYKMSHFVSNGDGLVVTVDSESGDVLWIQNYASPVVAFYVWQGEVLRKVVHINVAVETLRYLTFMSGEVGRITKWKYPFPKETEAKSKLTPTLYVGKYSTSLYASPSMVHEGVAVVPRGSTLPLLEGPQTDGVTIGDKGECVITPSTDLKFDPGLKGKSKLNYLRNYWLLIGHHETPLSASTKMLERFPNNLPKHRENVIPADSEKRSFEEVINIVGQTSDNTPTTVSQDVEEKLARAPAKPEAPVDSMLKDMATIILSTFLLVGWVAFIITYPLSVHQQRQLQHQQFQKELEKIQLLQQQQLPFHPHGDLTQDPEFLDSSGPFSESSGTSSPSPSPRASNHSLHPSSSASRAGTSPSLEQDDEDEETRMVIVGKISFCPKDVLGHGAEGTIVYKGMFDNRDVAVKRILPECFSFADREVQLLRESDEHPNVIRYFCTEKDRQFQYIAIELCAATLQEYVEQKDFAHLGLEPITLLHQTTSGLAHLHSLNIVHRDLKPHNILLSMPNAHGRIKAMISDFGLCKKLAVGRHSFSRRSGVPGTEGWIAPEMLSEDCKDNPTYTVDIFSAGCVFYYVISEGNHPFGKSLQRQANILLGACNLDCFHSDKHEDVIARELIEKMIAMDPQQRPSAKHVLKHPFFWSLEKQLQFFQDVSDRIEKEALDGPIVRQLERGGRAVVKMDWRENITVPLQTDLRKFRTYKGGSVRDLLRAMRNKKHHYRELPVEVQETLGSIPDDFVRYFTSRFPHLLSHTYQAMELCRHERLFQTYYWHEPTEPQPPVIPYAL

Compound: CN(C)CC1CCOC1(c1ccccc1)c1ccccc1.Cl (centres unmarked) [ANAVEX® 2-73, tetrahydro-N,N-dimethyl-2,2-diphenyl-3-furanmethanamine hydrochloride]
- Tau hyperphosphorylation [1]: may block tau hyperphosphorylation
- Affinity for / binding to sigma-1 receptor (S1R) [2]: high nanomolar range
- Memory and neuroprotection effects [3]: memory-preserving and neuroprotective effects
- Binding to the muscarinic receptor [4]: low micromolar range

Compound: c1cc(Nc2cc(C3CC3)[nH]n2)nc(Nc2ccc3nc[nH]c3c2)n1 [APY29]
- XBP1 splicing amounts after forced IRE1 activation ([5]; WT vs S1R KO BMDM, activator of IRE1, 6 hours): equal in both genotypes

Compound: CO/N=C(\C(=O)N[C@@H]1C(=O)N2C(C(=O)O)=C(CSc3nc(=O)c(=O)[nH]n3C)CS[C@H]12)c1csc(N)n1 [Ceftriaxone]
- Survival [6, 11]: enhancing survival

Compound: Cc1ccc(NCCCc2ccccc2)c(N)c1 [JSH-23]
- Difference in LPS-induced IL-6 secretion between WT and S1R KO BMDM [7]: did not eliminate the difference
- LPS-induced IL-6 secretion [7]: reduced LPS-induced IL-6 secretion

Compound: COc1cccc(-c2cc(=O)c3ccccc3o2)c1N [PRESENTLY DISCLOSED 98059]
- Difference in LPS-induced IL-6 secretion between WT and S1R KO BMDM [7]: without altering the ability of S1R KO BMDM to produce more IL-6
- LPS-induced IL-6 secretion [7]: significant decrease in IL-6 production

Compound: O=S(=O)(N=Cc1c(O)ccc2ccccc12)c1cccs1 [STF, N-[(2-Hydroxy-1-naphthalenyl)methylene]-2-thiophenesulfonamide]
- Median survival of S1R KO mice [8, 12]: 113 h
- Mortality of S1R KO mice [8, 12]: 62.5%
- LPS induced mortality / survival of S1R KO mice [8, 13]: largely rescued; also recorded: spared KO mice from LPS induced mortality; also recorded: clear benefit in S1R KO survival
- Survival of WT mice [8, 13]: did not significantly affect the survival of WT mice
- Serum IL-6 ([8]; S1R KO mice, LPS 2 mg/kg, STF 30 mg/kg i.p., serum 3 hours after LPS): significantly decreased serum IL-6; also recorded: trend toward decreased IL-6
- IL-6 in the peritoneal exudate ([8]; S1R KO mice, LPS 2 mg/kg, STF 30 mg/kg, 3 hours after LPS): corrected by STF treatment
- Blocking IL-6 secretion in S1R KO BMDM stimulated with LPS ([7]; STF 083010 (60 μM) compared with 4μ8C (5 μM), FIG. 7A): as effective as 4μ8C
- IRE1 inhibitor effectiveness (IL-6 ELISA, FIG. 11C) ([7]; BMDM, 20 μM STF): effective IRE1 inhibitor

Compound: CCN(CC)CCCC(C)Nc1ccnc2cc(Cl)ccc12 (centres unmarked) [chloroquine]
- Rescue of IRE1 protein levels in the presence of S1R overexpression [9]: Neither lactacystin nor chloroquine treatment could rescue IRE1 protein levels

Compound: COCCCC/C(=N\OCCN)c1ccc(C(F)(F)F)cc1 [fluvoxamine]
- Affinity for / binding to sigma-1 receptor (S1R) [2]: low-nanomolar affinity; also recorded: high affinity
- Survival ([6]; therapeutic fluvoxamine 30 min post FIP induction): significantly enhanced survival
- Survival [6, 11]: as efficacious in enhancing survival as Ceftriaxone
- Rectal temperature ([6]; C57BL/6J, 24 hours after FIP induction, fluvoxamine 30 min post FIP induction): improved
- Clinical score (total murine sepsis score) ([6]; C57BL/6J, fluvoxamine 30 min post FIP induction): improved
- Rectal temperature ([8]; C57BL/6J, 24 hours after LPS, fluvoxamine 90 min post LPS challenge): improved
- Clinical score (total murine sepsis score) ([8]; C57BL/6J, LPS 6 mg/kg, fluvoxamine 90 min post LPS challenge): improved
- Survival ([8]; C57BL/6J, LPS 6 mg/kg, therapeutic fluvoxamine 90 min post LPS challenge): significantly enhanced survival
- Mortality of S1R KO animals [8, 14]: no significant effect
- Mortality of WT mice [8, 14]: significantly protected WT mice from mortality
- Serum IL-6 in S1R KO animals [8, 14]: no significant effect
- Serum IL-6 in WT mice ([8]; LPS 6 mg/kg, fluvoxamine 20 mg/kg at the same time as LPS, 3 hours after LPS): reduced serum IL-6
- Breadth of modulation of inflammatory mediators (FIG. 14) [10]: limited to a subset of inflammatory mediators
- IL-8 production [10]: decreased
- LPS-induced IL-1β [10]: significantly reduced
- LPS-induced IL-6 [10]: significantly reduced
- LPS-induced IL-12 p40 [10]: significantly reduced

Compound: CC(=O)N[C@@H](CSC(=O)[C@]1([C@@H](O)C(C)C)NC(=O)[C@H](C)[C@@H]1O)C(=O)O [lactacystin]
- Rescue of IRE1 protein levels in the presence of S1R overexpression [9]: Neither lactacystin nor chloroquine treatment could rescue IRE1 protein levels

Compound: tunicamycin
- XBP1 splicing after tunicamycin ([5]; S1R KO vs WT BMDM, 5 μM tunicamycin, 6 hours): elevated XBP1 splicing in S1R KO BMDM
